{
  "source": "patent US20020132812A1",
  "about": "“Oral hypoglycaemic agents” (priority 2000, published 2002)",
  "key": {"[1]": {"tested_on": "isolated perfused rat pancreas", "assay": "Insulin release from isolated perfused rat pancreas", "procedure": "The effect of the compounds of the invention on the insulin release from isolated perfused rat pancreas can be investigated as exemplified below with the title compound of Example 2 (compound (Ex 2). In the example described, the investigation is carried out at 2.8 mM and 8.3 mM glucose.\nMale Sprague Dawley rats (body weight around 300 g) were anaesthetised with a mixture of Hypnorm® (Janssen Pharma) and Dormicum® (Roche) and the pancreas was cannulated and isolated a described by Sturis et al., Am. J. Physiol. 269, E786-E792, 1995. The organ was placed at 37° C. in a humidified perfusion chamber and perfused with a […] gassed bicarbonated Krebs Ringer, 4% Dextran buffer from a pump delivering 71% of the total volume and from a pump delivering 29% volume of the same buffer with added BSA (0.2% final concentration) and glucose (2.8 mM or 8.3 mM final concentration). The 29% pump also delivered compund (Ex 2) at 10^−5 M in the interval t=20-40 min and at 10^−4 M in the interval t=60-80 min. The pancreata were acclimatised for 20 min before start of sampling at 1 fraction of ca 1900 μl/min for 100 min. Aliquots of 200 μl were frozen away at −20° C. for subsequent insulin ELISA using guinea pig anti-insulin antibodies. The results are shown in FIG. 7 and are expressed as fmol insulin released per pancreas per min. Each plot represents one pancreas, except 8.3 mM glucose alone mean of n=2. […] In the pancreas infused with 8.3 mM glucose and compound (Ex 2) there was an initial noise in the interval t=0-20 min which was due to a mechanical problem with the tubing. […] When 10^−4 M compound (Ex 2) was added at t=60 min there was a classic first-phase insulin release peaking at 3000 fmol/min, followed by second-phase release. […] We have evidence that non-reversal may be due to the low BSA concentration (0.2%) in the perfusate.\nIn the pancreas perfused with compound (Ex 2) at 2.8 mM glucose, the insulin secretion was only about 10% of that seen at 8.3 mM glucose (max. 250 fmol/min) with 10^−4 M compound (Ex 2) while the control pancreas secretion was flat at ca 20 fmol/min."}, "intact mouse islets": {"tested_on": "intact mouse islets", "assay": "Insulin release from intact mouse islets (ELISA)", "format": "cell-based", "conditions": "100 μM compound, 60 min incubation", "procedure": "Intact pancreatic islets were isolated from fed NMRI mice (15-18 g) as previously described (Fuhlendorff et al., Diabetes, Vol. 47 (3) pp. 345-351, 1998). Insulin release was measured from groups of 10 size-matched islets, cultured overnight in RPMI-1640 tissue culture medium containing 1% GlutaMAX™ (Gibco BRL),1% penicillin/streptomycin, 7.5% NaHCO3 and 10% new-born calf serum. The islets were washed for 20 minutes in Krebs Ringer Buffer consisting of 115 mM NaCl, 4.7 mM KCl, 2.6 mM CaCl2, 1.2 mM KH2PO4, 1.2 mM MgSO4, 20 mM HEPES, 2 mM glutamine, 5 mM NaHCO3, 0.2% human serum albumin and 1% penicillin/streptomycin) and 2.5 mM, 5 mM or 10 mM D-glucose. Afterwashing, the islet were incubated for one hour at +37° C. in Krebs Ringer Buffer containing the test compound at 100 μM and glucose at 2.5 mM, 5 mM or 10 mM. After the one-hour incubation, the medium was aspirated and kept at −20° C. until assayed for insulin using the following ELISA technique. Immuno 96 well paltes (MaxiSorPTM, NUNC, Denmark) were coated over night at 4° C. with a rabbit-anti-guinea pig-lgG (Dako) antibody diluted 1:1000 in 0.1 M NaHCO3 (pH 9.8). After washing 4 times in 0.15 M NaCl and 0.005% Tween-20 the plates were incubated with guinea pig-anti-insulin diluted in phosphate buffered saline (incubation buffer; pH 7.4) containing 0.1% Tween-20 and 0.5% human serum albumin over night. After washing the sambles were incubated for 1.5 h with relevant samples and peroxidase-insulin (Sigma) diluted 1:10000 in PBS-DIL. The samples we-were then washed and developed with TMBPlus-substrated as described by the manufacture (KEM EN TEC, Denmark). The amount of insulin was quantified from a standard curve after reading the samples at 450 nm.\nElevating the external glucose concentration from 2.5 mM to 5 mM was not associated with an increase in insulin release whereas a 90% stimulation was observed following application of 10 mM glucose (P<0.05; n=8)."}},
  "data": [
    {"smiles": "COc1cccc(C(CC2=NCCN2)c2ccccn2)c1", "note": "(single isomer, unassigned; (-)) [compound (Ex 2), (−)-2-(2-(4,5-Dihydro-1H-imidazol-2-yl)-1-(3-methoxyphenyl)ethyl)pyridine]", "values": [
      {"measurement": "insulin secretion, max.", "setting": "[1]; 2.8 mM glucose, 10^-4 M compound, control pancreas ca 20 fmol/min", "result": 250, "unit": "fmol/min"},
      {"measurement": "first-phase insulin release, peak", "setting": "[1]; 8.3 mM glucose, 10^-4 M compound added at t=60 min, 8.3 mM glucose alone 300 up to ca 700 fmol/min", "result": 3000, "unit": "fmol/min"},
      {"measurement": "effect on insulin secretion (in words)", "setting": "[1]; 8.3 mM glucose, 10^-5 M compound, t=20-40 min", "result": "small increase in insulin secretion"},
      {"measurement": "insulin secretion at 2.8 mM glucose as share of that seen at 8.3 mM glucose", "setting": "[1]; 10^-4 M compound", "result": "about 10%"},
      {"measurement": "effect on insulin release", "setting": "intact mouse islets; 2.5 mM glucose", "result": "does not affect insulin release"},
      {"measurement": "effect on insulin release", "setting": "intact mouse islets; 5 mM glucose", "result": "does not affect insulin release"},
      {"measurement": "stimulation of insulin secretion", "setting": "intact mouse islets; 10 mM glucose, P<0.01, n=8", "result": 220, "unit": "%"}
    ]}
  ]
}
